Values after ≈ are worked out from the molar mass of the structure shown. Values joined by “and” are separate entries in the source; they are usually repeats but may differ in a detail not shown here. Identical values can stand only once. “Also recorded” adds a separate entry of the source. Like-named read-outs stand apart in the source and are kept apart here.
Tests used:
[1] = Bioavailability of three formulations, single oral gavage dose, plasma pharmacokinetics; assay type: in vivo; settings: Formula C, fasted male dogs, individual dogs and Mean; for Plasma concentration: oral 300 mg/kg
Method: Three formulations were evaluated for the bioavilability of [1-(4-tert-butylbenzyl)-5-(3-methylphenyl)-1h-indol-3-yl](oxo)acetic acid in male dogs. Following a single oral (gavage, 300 mg/kg) dose of [1-(4-tert-butylbenzyl)-5-(3-methylphenyl)-1h-indol-3-yl](oxo)acetic acid, blood samples were drawn at 0 (predose), 0.25, 0.5, 1, 2, 3, 4, 6, 8, 10, 12, 24 and 30 hours. The pharmacokinetic parameters, AUC, Cmax, tmax and t1/2, were determined for each dog, and descriptive statistics were calculated for comparison among formulations.
Individual plasma concentrations over time after dosing Formula C are tabulated and plotted in Table 2 and FIG. 2 respectively.

[2] = Solubility profile (free acid in HCl/NaOH solution, centrifugation, supernatant assayed by HPLC); assay type: physicochemical
Text: In some embodiments, the [1-(4-tert-Butylbenzyl)-5-(3-methylphenyl)-1H-indol-3-yl](oxo)acetic acid used with the composition of the invention is micronized.

Cc1cccc(-c2ccc3c(c2)c(C(=O)C(=O)O)cn3Cc2ccc(C(C)(C)C)cc2)c1 [[1-(4-tert-Butylbenzyl)-5-(3-methylphenyl)-1H-indol-3-yl](oxo)acetic acid]
Plasma concentration ([1]; 0.25 hours after dose): 2200 ng/mL and 3390 ng/mL and 3290 ng/mL | Plasma concentration ([1]; 0.5 hours after dose): 7500 ng/mL and 10400 ng/mL and 9190 ng/mL | Plasma concentration ([1]; 1 hour after dose): 18100 ng/mL and 21100 ng/mL and 20000 ng/mL | Plasma concentration ([1]; 2 hours after dose): 26300 ng/mL and 34700 ng/mL and 34100 ng/mL | Plasma concentration ([1]; 4 hours after dose): 29300 ng/mL and 31900 ng/mL and 46600 ng/mL | Plasma concentration ([1]; 6 hours after dose): 26900 ng/mL and 30300 ng/mL and 48000 ng/mL | Plasma concentration ([1]; 8 hours after dose): 26500 ng/mL and 24000 ng/mL and 37600 ng/mL | Plasma concentration ([1]; 10 hours after dose): 25300 ng/mL and 40100 ng/mL and 15900 ng/mL and 28200 ng/mL | Plasma concentration ([1]; 12 hours after dose): 19700 ng/mL and 43600 ng/mL and 12400 ng/mL and 22300 ng/mL | Plasma concentration ([1]; 24 hours after dose): 4720 ng/mL and 25900 ng/mL and 2410 ng/mL and 21900 ng/mL | Plasma concentration ([1]; 30 hours after dose): 2610 ng/mL and 15200 ng/mL and 1240 ng/mL and 10600 ng/mL | concentration at 0.25 h ([1]; male, dog, in vivo, po, 300 mg/kg, 0.25 hours after dose): 2330 ng/mL | concentration at 0.5 h ([1]; male, dog, in vivo, po, 300 mg/kg, 0.5 hours after dose): 8190 ng/mL | concentration at 1 h ([1]; male, dog, in vivo, po, 300 mg/kg, 1 hour after dose): 16700 ng/mL | concentration at 2 h ([1]; male, dog, in vivo, po, 300 mg/kg, 2 hours after dose): 30000 ng/mL | concentration at 4 h ([1]; male, dog, in vivo, po, 300 mg/kg, 4 hours after dose): 43000 ng/mL | concentration at 6 h ([1]; male, dog, in vivo, po, 300 mg/kg, 6 hours after dose): 39400 ng/mL | concentration at 8 h ([1]; male, dog, in vivo, po, 300 mg/kg, 8 hours after dose): 31900 ng/mL | solubility enhancement ([2]; 2% Tween80/0.5% methylcellulose solution versus water): 26.000 fold | solubility ([2]; 2% Tween80/0.5% methylcellulose solution, pH 3.5, aqueous with cosolvent or surfactant or cyclodextrin, read-out: solubility): 580 µg/mL (≈ 1360 µM) | solubility ([2]; aqueous HCl/NaOH solution, aqueous buffer, thermodynamic from solid, in the ionized form (so in the source), read-out: aqueous solubility): ~0.25 µg/mL (≈ 0.588 µM) | pH-solubility profile ([2]; free acid in HCl/NaOH solution, 24 hours equilibration (2 hours for pH<4)): Above pH 4, solubility increases with increasing pH up to pH˜8; also recorded: Above pH 8, solubility decreases due to precipitation of the sodium salt | aqueous solubility ([2]; upon ionization in aqueous media): approximately 24 uG/mL | solubility at 24 h ([2]; water, thermodynamic from solid, neutral pH 6.9): 24 µg/mL (≈ 56.4 µM)

Source: patent US20080188540A1, “PHARMACEUTICAL COMPOSITIONS CONTAINING SUBSTITUTED INDOLE ACID DERIVATIVES AS INHIBITORS OF PLASMINOGEN ACTIVATOR INHIBITOR-1 (PAI-1)” (Wyeth, priority 2007, published 2008)
